Type in all cases: physicochemical
Series [1] is described as follows: Solution Homogeneity Test. As to conditions: Table 5; glyoxy alkyl diaminol in water and MeOH only. An excerpt: In one aspect, as two-phase reaction products are problematic, scavenger system homogeneity is desired. The two phases could be emulsified or otherwise finely dispersed, but in practice, even fine, seemingly stable dispersions eventually separate or stratify in extended storage or critical use and are not robust enough for practical use. They are not allowed, for example, to be fed through capillaries for fear of plugging them. In this pass/fail test, a sample is held up for visual inspection in a backlit clear vial. A clear, single-phase, homogeneous solution is a pass. Anything else is a fail.

The nature of series [2]: Spent Water Flowability Test. Set-up: key: Pass: A homogeneous, single-phase solution or thin layer of readily flowable non-sticking liquid constitutes a pass.; Fail: Any solids or thick, sticky insoluble liquid is a fail.; PASS: A homogeneous, single-phase solution or thin layer of readily flowable non-sticking liquid constitutes a pass.; FAIL: Any solids or thick, sticky insoluble liquid is a fail. Conditions: Table 5; glyoxy alkyl diaminol in water and MeOH only. As to the method: In field applications, spent scavenger is disposed of through a wastewater system. Spent scavenger might be soluble in the scavenger system but insoluble in wastewater. If it cannot be disposed of, it is not suitable for use. To ensure wastewater processing runs trouble free, spent scavenger passing the Spent Solids Fouling Test is then added to 39 times its weight in water (2.5%) and examined again for insoluble solids and viscous, sticky liquids that might foul the wastewater system. Any solids or thick, sticky insoluble liquid is a fail. A homogeneous, single-phase solution or thin layer of readily flowable non-sticking liquid constitutes a pass.

A short description of another series: Hot Spray Fouling Test. Conditions: Table 5; glyoxy alkyl diaminol in water and MeOH only. An excerpt:
In many gas applications, the scavenger must by sprayed into a hot gas stream. This can create insoluble materials (“solids”) as the scavenger system evaporates and/or decomposes. These solids accumulate and foul (interfere with the function) of the vessel, line, or equipment to which the scavenger is being fed. This precludes the scavenger being used in that application. Referring now to FIG. 2, a spray test system 200 is utilized to for the Hot Spray Fouling Test. In one embodiment, an injection atomizer apparatus 22 is employed, wherein the scavenger formulation (not separately labeled) is sprayed onto a sheet 26 through an atomizing nozzle 24, like that used to introduce the scavenger into a gas line, tank, or vessel. The material is first placed in a double boiler (not shown) and brought to 180° F. The heated liquid is then placed in the injection atomizer apparatus 22 and sprayed horizontally onto an aluminum sheet 26 twelve inches away. The chemical drains gravitationally down the sheet where it is funneled into a beaker 28 for collection. If solids are observed on the sheet 26 or in the draining or collected fluid, the sample fails. If no solids are observed, it passes the test.

Series [3] in a line: Storage Capacity Loss Test. Conditions: for BT Capacity Loss / FD Capacity Loss: 72-24 Hrs storage at room temperature; for Min to BT / Min to FD: Short Reaction Time Capacity Test, diaminol in water + 10.00 g MeOH, 20 g test. As to the method: This test compares the scavenging capacity after 24 hours of storage of the scavenger system at room temperature to that after 72 hours of storage thereof at room temperature. In one embodiment, a sample of the scavenger system is made fresh and split in two portions. The Short Reaction Time Capacity Test is run on one portion after standing 24 hours on the bench at room temperature. Then the same test is run on the other portion after standing 72 hours on the bench at room temperature. The two measured capacities are compared to see if the product degrades in storage. Importantly, some scavengers lose activity with time due to secondary reactions and re-equilibrations that degrade their active form.
Table 5 compares different alkyl substituents on glyoxy alkyl diaminols. These compounds were prepared by reacting one mole of glyoxal, as a 40% aqueous solution, with 2.1 moles of various primary amines in a sufficient amount of MeOH to keep the product from separating into an aqueous layer and a non-aqueous layer. For each amine substituent: methyl (Me), ethyl (Et), normal-propyl (n-Pr), iso-propyl (i-Pr), and iso-propanol [1-propan-2-ol] (i-PrOH), the presence or absence of alpha branching on that substituent is noted. The weight ratios of the diaminols, water, and MeOH, are listed, along with their equivalent weights (Eq. Wt.) and the total equivalents per 20 g test (Eq/test). To measure the product stability, the Storage Capacity Loss between 24 and 72 hours was determined. As described earlier, a fresh sample of the scavenger system is split in two portions. The Short Reaction Time Capacity Test is run on one portion after standing 24 hours on the bench at room temperature. Then the same test is run on the other portion after standing 72 hours on the bench at room temperature. Both the 24-hr and 72-hr capacities (Min to FD and BT) and molar capacities (Min/Eq FD and BT) are listed in the table with the percent capacity loss for each substituent calculated below it. […] The others lost 34% to 77% of their scavenging capacity in 48 hours (72-24), presumably due to secondary reactions and re-equilibrations that degraded their active form. In this system employing only methanol, all of these compositions failed both the Hot Spray Fouling Test and the Spent Water Flowability Test. Two of them, the iso-propylamine [propan-2-amine] and the iso-propanolamine [1-aminopropan-2-ol] passed the Spent Solids Fouling Test.

A short description of series [4]: Spent Solids Fouling Test. Conditions: Table 5, glyoxy alkyl diaminol in water and MeOH only. The text has this: In every application, the active component of the scavenger system reacts with H2S to from a reaction product. Once all the active scavenger has been so reacted, it is spent. […] Thioethers are much less water soluble than amines, so the reaction products are often insoluble. Thioether bridges also connect spent scavenger molecules to each other, thereby forming insoluble polymeric solids. These solids accumulate and foul (interfere with the function) of the vessel, line, or equipment to which the scavenger is being fed. […] If any solids or insoluble viscous liquids are observed poorly dispersed in the spent scavenger system or clinging to the sides of the vessel, the scavenging system employed in that Long Reaction Time Capacity Test fails this test. A homogeneous, single-phase solution or thin layer of readily flowable non-sticking liquid constitutes a pass.

The mark [5] stands for this setting: Sample Age 24 Hrs at room temperature.
The mark [6] stands for this setting: Sample Age 72 Hrs at room temperature.

The structures appear in SMILES notation.

Take `CCNC(O)C(O)NCC` (stereo not drawn) [Et]: the “Solution Homogeneity” value in series [1] is recorded as “Pass”. In series [2], the “Spent Water Flowability” value is on record as “Fail”. For the same compound, the “Hot Spray Fouling” value in “Hot Spray Fouling Test” was “Fail”. Further, in series [3], the “BT Capacity Loss” value stood at 46% and the “FD Capacity Loss” value is reported as 71%. Besides, in series [3] (Sample Age 24 Hrs), the “Min/Eq BT” value is reported as 436 Min/Eq and the “Min/Eq FD” value is recorded as 365 Min/Eq. In addition, in series [3] (setting [5]), the “Min to BT” value came to 37 min and the “Min to FD” value was determined as 31 min. In addition, in series [3] (Sample Age 72 Hrs), the “Min/Eq BT” value came to 236 Min/Eq and the “Min/Eq FD” value came out at 106 Min/Eq. For the same compound, in series [3] (setting [6]), the “Min to BT” value was 20 min and the “Min to FD” value was found to be 9 min. The “Spent Solids Fouling” value in series [4] is listed as “Fail”.

As to `CCCNC(O)C(O)NCCC` (stereo not drawn) [n-Pr], the “Solution Homogeneity” value in series [1] is listed as “Pass”. For the same compound, in series [2], the “Spent Water Flowability” value is “Fail”. For the same compound, the “Hot Spray Fouling” value in “Hot Spray Fouling Test” is given as “Fail”. For the same compound, in series [3], the “BT Capacity Loss” value was determined as 55% and the “FD Capacity Loss” value turned out to be 77%. Besides, in series [3] (Sample Age 24 Hrs), the “Min/Eq BT” value is given as 501 Min/Eq and the “Min/Eq FD” value is reported as 409 Min/Eq. In series [3] (setting [5]), the “Min to BT” value is 38 min and the “Min to FD” value is 31 min. For the same compound, in series [3] (Sample Age 72 Hrs), the “Min/Eq BT” value was found to be 224 Min/Eq and the “Min/Eq FD” value was found to be 92 Min/Eq. In addition, in series [3] (setting [6]), the “Min to BT” value stood at 17 min and the “Min to FD” value came to 7 min. In series [4], the “Spent Solids Fouling” value is given as “Fail”.

With `CNC(O)C(O)NC` (stereo not drawn) [Me], the “Solution Homogeneity” value in series [1] is reported as “Pass”. Moreover, in series [2], the “Spent Water Flowability” value was “Fail”. In addition, the “Hot Spray Fouling” value in “Hot Spray Fouling Test” was “Fail”. Besides, in series [3], the “BT Capacity Loss” value was 34% and the “FD Capacity Loss” value is 47%. In addition, in series [3] (Sample Age 24 Hrs), the “Min/Eq BT” value is 301 Min/Eq and the “Min/Eq FD” value is on record as 156 Min/Eq. In series [3] (setting [5]), the “Min to BT” value turned out to be 29 min and the “Min to FD” value was 15 min. In addition, in series [3] (Sample Age 72 Hrs), the “Min/Eq BT” value is given as 197 Min/Eq and the “Min/Eq FD” value turned out to be 83 Min/Eq. Further, in series [3] (setting [6]), the “Min to BT” value amounted to 19 min and the “Min to FD” value is 8 min. Further, in series [4], the “Spent Solids Fouling” value is “Fail”.

As for `CC(O)CNC(O)C(O)NCC(C)O` (stereo not drawn), the “Solution Homogeneity” value in series [1] is “Pass”. In addition, the “Spent Water Flowability” value in series [2] is listed as “Fail”. The “Hot Spray Fouling” value in the series “Hot Spray Fouling Test” was “Fail”. Further, the “BT Capacity Loss” value in series [3] was found to be 67%. In addition, the “FD Capacity Loss” value in series [3] was found to be 54%. Moreover, the “Min/Eq BT” value was 444 Min/Eq in series [3] (Sample Age 24 Hrs) and 148 Min/Eq in series [3] (Sample Age 72 Hrs). The “Min/Eq FD” value in series [3] (Sample Age 24 Hrs) came out at 192 Min/Eq; in series [3] (Sample Age 72 Hrs), 89 Min/Eq. Further, the “Min to BT” value was determined as 30 min in series [3] (setting [5]) and 10 min in series [3] (setting [6]). Further, the “Min to FD” value in series [3] (setting [5]) turned out to be 13 min; in series [3] (setting [6]), 6 min. The entries for the “Spent Solids Fouling” value in series [4] and in series [4] (listed as iso-propanolamine) were “Pass” and “passed”, respectively.

The values above are taken from patent publication US20220017833A1, “Methods and Compositions for Scavenging Sulfides from Hydrocarbon Fluids and Aqueous Streams” (Nexgen Oilfield Chemicals, LLC, priority 2019, published 2022).
